Results published in PubChem BioAssay (NCI).
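Each compound was tested at five concentrations against cells in 96-well plates for 48 hours. TGI: concentration producing complete growth inhibition.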

What was measured:
Experiment in all cases: NCI-60 cell line screen, 48 h
SW-620 colon = tested on: SW-620 colon
SF-539 CNS = tested on: SF-539 CNS
COLO 205 colon = tested on: COLO 205 colon
DU-145 prostate = tested on: DU-145 prostate
M14 melanoma = tested on: M14 melanoma
MCF7 breast = tested on: MCF7 breast
SK-MEL-2 melanoma = tested on: SK-MEL-2 melanoma
U251 CNS = tested on: U251 CNS
RPMI-8226 leukemia = tested on: RPMI-8226 leukemia
SF-295 CNS = tested on: SF-295 CNS
HCT-116 colon = tested on: HCT-116 colon
SK-MEL-5 melanoma = tested on: SK-MEL-5 melanoma
RXF 393 renal = tested on: RXF 393 renal
A498 renal = tested on: A498 renal
IGROV1 ovarian = tested on: IGROV1 ovarian
UO-31 renal = tested on: UO-31 renal
BT-549 breast = tested on: BT-549 breast
MDA-N = tested on: MDA-N
T-47D breast = tested on: T-47D breast

SMILES | TGI (SW-620 colon) [µM] | TGI (SF-539 CNS) [µM] | TGI (COLO 205 colon) [µM] | TGI (DU-145 prostate) [µM] | TGI (M14 melanoma) [µM] | TGI (MCF7 breast) [µM] | TGI (SK-MEL-2 melanoma) [µM] | TGI (U251 CNS) [µM] | TGI (RPMI-8226 leukemia) [µM] | TGI (SF-295 CNS) [µM] | TGI (HCT-116 colon) [µM] | TGI (SK-MEL-5 melanoma) [µM] | TGI (RXF 393 renal) [µM] | TGI (A498 renal) [µM] | TGI (IGROV1 ovarian) [µM] | TGI (UO-31 renal) [µM] | TGI (BT-549 breast) [µM] | TGI (MDA-N) [µM] | TGI (T-47D breast) [µM]
CC(=O)O[C@H]1C(=O)[C@@]2(C)[C@H]([C@H](OC(=O)c3ccccc3)[C@]3(O)C[C@H](OC(=O)[C@H](O)[C@@H](NC(=O)OC(C)(C)C)c4ccco4)C(C)=C1C3(C)C)[C@]1(OC(C)=O)CO[C@@H]1C[C@@H]2O | > 50 | 0.0138 | < 0.005 | < 0.005 | 25.2 | 0.247 | 10.9 | > 16.1 | > 28.2 | < 0.005 | 17.5 | 19 | 0.0338 | 22.7 | > 50 | > 34.9 | < 0.005 | 0.0325 | > 50
COc1cccc(C2c3cc4c(cc3OC(NNC(N)=O)C2C)OCO4)c1OC (stereo not drawn) | > 100 | 37.5 | 27.8 | 83.1 | 40.6 | > 100 | 52.1 | 68.2 | 46.1 | 43.3 | 27.6 | 43.9 | 49.9 | 51.1 | 83.2 | 86 | > 100 | 82.7 | > 100
Cc1ccc(C(CCO)CCO)nc1 | > 100 | > 100 | > 100 | > 100 | > 100 | > 100 | > 100 | > 100 | > 100 | > 100 | > 100 | > 100 | > 100 | > 100 | – | > 100 | > 100 | > 100 | > 100
CC(NNC(=S)N1CCCC1)c1cccnn1 (stereo not drawn) | > 100 | 4.36 | > 100 | > 70 | – | 5.33 | > 100 | > 100 | > 100 | > 28.2 | > 44 | 5.39 | 0.671 | 97.5 | > 59.3 | 3.08 | > 56.1 | > 100 | > 100
CC(C)C1CCC(=O)CC1CCCCC1CC(=O)CC1O[Si](C)(C)C(C)(C)C (stereo not drawn) | > 26.5 | 24.8 | 21.5 | 39.1 | 43.4 | 27.2 | 24.5 | 5.84 | 5.6 | 25.5 | 15.3 | 12.6 | 27.8 | 27.1 | 8.24 | 20.2 | 13.3 | 21.1 | 46.9
COc1cc(C2SCC(=O)N2c2ccc(Cl)cc2)cc(OC)c1OC (stereo not drawn) | > 100 | > 100 | > 56.8 | > 100 | > 57.8 | > 100 | > 100 | > 100 | > 55.3 | > 100 | > 100 | > 100 | 71.2 | > 100 | > 100 | > 100 | > 100 | 20.9 | > 24.2
O=C(N/N=C\c1ccc(Cl)cc1)Nc1cccc2ccccc12 | > 76.6 | 35.7 | > 100 | > 100 | > 100 | 22.3 | > 100 | 10.1 | > 100 | 6.2 | > 23.2 | > 37.4 | 9.99 | 7.13 | > 25.8 | 4.84 | > 100 | > 21.3 | > 100
CCOC(=O)C12CCC(c3c(C)cccc3C)(O1)C(C(=O)OC)=C2C(=O)OC (stereo not drawn) | > 10 | 4.76 | 5.08 | > 10 | > 9.53 | > 10 | > 10 | > 10 | > 10 | > 10 | > 10 | 5.37 | > 10 | 7 | > 10 | > 10 | > 10 | 1.98 | > 10
O=C1NC(NNc2ccccc2)=N/C1=C\c1ccco1 | 60.7 | – | 25.1 | 42.9 | 44.5 | 34 | 48.2 | 39.8 | 66 | > 100 | 37.9 | > 100 | 28.6 | > 100 | 34 | 55.2 | 50.7 | > 100 | 44.9
CC(=O)Oc1ccc(C)c2c1[C@H]1CC[C@]3(C)[C@@H](OC(C)=O)CC[C@H]3[C@@H]1CC2 | 34.4 | 38 | – | 66.6 | 32.2 | 38.9 | – | 29.1 | 49.4 | 48.5 | 31.2 | 34.9 | 35.4 | 31.4 | 36.4 | > 100 | 32 | 36.8 | 40.6
Cc1c2c(n3c(nc4ccccc43)c1C#N)NCC2 | > 10 | > 10 | > 10 | > 10 | > 10 | > 10 | – | > 10 | > 10 | > 10 | > 10 | > 10 | > 10 | > 10 | > 10 | > 10 | > 10 | > 10 | > 10
